Results as given in ChEMBL document CHEMBL1909046, “DrugMatrix in vitro pharmacology data”.

Tests used:
[1] = biological target: Kappa-type opioid receptor (Homo sapiens, UniProt P41145); experiment: DRUGMATRIX: Opiate kappa (OP2, KOP) radioligand binding (ligand: [3H] Diprenorphine); type: cell membranes, HEK293, Membrane; settings: hek293; Not Active = under 50% inhibition at 10 µM
[2] = biological target: Tyrosine-protein kinase Lck (Homo sapiens, UniProt P06239); experiment: DRUGMATRIX: Protein Tyrosine Kinase, LCK enzyme inhibition (substrate: Poly(Glu:Tyr)); type: cell-based, Insect cells; settings: insect cells; Not Active = under 50% inhibition at 10 µM
[3] = biological target: Melanocortin receptor 3 (Homo sapiens, UniProt P41968); type: cell membranes, HEK293, Membrane; settings: hek293; further: in other assays of this panel Not Active means under 50% inhibition at 10 µM
[4] = DRUGMATRIX: Interleukin IL-1 radioligand binding (ligand: [125I] interleukin 1beta); type: cell membranes, Membrane; settings: nih3t3; Not Active = under 50% inhibition at 10 µM
[5] = biological target: Nitric oxide synthase 1 (Rattus norvegicus, UniProt P29476); type: tissue-based, Cerebellum; further: in other assays of this panel Not Active means under 50% inhibition at 10 µM
[6] = biological target: T1, Cytochrome P450 1A2 (Homo sapiens, UniProt P05177); settings: bti-tn-5b1-4; further: in other assays of this panel Not Active means under 50% inhibition at 10 µM
T1 sequence (P05177 whole entry): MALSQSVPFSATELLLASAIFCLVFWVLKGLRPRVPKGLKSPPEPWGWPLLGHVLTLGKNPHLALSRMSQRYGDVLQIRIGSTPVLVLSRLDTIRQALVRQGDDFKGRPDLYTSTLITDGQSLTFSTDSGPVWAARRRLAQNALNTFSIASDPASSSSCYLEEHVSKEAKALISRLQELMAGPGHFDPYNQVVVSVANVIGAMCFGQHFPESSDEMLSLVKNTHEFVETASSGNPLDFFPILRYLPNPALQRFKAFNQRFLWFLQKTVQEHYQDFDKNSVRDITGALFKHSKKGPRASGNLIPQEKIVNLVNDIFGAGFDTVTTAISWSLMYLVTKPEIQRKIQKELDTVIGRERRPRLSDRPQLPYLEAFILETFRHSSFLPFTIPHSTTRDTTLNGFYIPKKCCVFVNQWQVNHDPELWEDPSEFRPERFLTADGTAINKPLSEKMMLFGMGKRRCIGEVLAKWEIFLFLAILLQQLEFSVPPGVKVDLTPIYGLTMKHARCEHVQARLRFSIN

[7] = biological target: T2, Type-2 angiotensin II receptor (Homo sapiens, UniProt P50052); type: cell-based; settings: cho-k1; further: in other assays of this panel Not Active means under 50% inhibition at 10 µM
T2 sequence (P50052 whole entry): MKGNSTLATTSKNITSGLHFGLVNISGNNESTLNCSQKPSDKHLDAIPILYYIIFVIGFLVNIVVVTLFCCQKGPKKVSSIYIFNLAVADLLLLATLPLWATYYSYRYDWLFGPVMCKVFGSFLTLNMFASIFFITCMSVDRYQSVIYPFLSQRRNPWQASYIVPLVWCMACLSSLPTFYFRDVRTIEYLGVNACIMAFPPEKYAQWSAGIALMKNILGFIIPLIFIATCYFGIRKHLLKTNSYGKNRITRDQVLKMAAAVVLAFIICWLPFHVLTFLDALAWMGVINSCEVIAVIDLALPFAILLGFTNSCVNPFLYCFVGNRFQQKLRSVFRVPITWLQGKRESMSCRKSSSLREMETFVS

[8] = biological target: Protein kinase C alpha type (Homo sapiens, UniProt P17252); type: cell-based; settings: sf9

Chain of Melanocortin receptor 3 (P41968 whole entry): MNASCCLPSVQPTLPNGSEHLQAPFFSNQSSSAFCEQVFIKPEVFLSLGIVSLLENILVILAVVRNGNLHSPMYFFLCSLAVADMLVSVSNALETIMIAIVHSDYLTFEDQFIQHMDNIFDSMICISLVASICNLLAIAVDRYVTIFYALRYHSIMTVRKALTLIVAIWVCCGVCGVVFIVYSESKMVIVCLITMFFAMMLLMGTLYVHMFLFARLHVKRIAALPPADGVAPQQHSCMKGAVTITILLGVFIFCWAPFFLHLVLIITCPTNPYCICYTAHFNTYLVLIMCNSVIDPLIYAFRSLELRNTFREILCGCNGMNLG
Chain of Tyrosine-protein kinase Lck (P06239 whole entry): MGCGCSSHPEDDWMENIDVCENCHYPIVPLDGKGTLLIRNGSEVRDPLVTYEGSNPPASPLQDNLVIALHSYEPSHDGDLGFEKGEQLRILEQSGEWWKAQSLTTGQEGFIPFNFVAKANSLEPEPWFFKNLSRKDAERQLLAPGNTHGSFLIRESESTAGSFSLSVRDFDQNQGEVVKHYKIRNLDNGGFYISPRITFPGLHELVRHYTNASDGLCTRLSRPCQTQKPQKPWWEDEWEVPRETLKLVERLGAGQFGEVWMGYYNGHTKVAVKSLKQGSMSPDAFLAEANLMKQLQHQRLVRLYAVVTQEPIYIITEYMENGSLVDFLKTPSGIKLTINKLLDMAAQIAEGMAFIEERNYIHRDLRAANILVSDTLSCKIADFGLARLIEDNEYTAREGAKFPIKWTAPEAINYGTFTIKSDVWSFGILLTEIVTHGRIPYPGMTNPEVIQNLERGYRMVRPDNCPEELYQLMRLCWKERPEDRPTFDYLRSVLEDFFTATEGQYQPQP
Chain of Nitric oxide synthase 1 (P29476 whole entry): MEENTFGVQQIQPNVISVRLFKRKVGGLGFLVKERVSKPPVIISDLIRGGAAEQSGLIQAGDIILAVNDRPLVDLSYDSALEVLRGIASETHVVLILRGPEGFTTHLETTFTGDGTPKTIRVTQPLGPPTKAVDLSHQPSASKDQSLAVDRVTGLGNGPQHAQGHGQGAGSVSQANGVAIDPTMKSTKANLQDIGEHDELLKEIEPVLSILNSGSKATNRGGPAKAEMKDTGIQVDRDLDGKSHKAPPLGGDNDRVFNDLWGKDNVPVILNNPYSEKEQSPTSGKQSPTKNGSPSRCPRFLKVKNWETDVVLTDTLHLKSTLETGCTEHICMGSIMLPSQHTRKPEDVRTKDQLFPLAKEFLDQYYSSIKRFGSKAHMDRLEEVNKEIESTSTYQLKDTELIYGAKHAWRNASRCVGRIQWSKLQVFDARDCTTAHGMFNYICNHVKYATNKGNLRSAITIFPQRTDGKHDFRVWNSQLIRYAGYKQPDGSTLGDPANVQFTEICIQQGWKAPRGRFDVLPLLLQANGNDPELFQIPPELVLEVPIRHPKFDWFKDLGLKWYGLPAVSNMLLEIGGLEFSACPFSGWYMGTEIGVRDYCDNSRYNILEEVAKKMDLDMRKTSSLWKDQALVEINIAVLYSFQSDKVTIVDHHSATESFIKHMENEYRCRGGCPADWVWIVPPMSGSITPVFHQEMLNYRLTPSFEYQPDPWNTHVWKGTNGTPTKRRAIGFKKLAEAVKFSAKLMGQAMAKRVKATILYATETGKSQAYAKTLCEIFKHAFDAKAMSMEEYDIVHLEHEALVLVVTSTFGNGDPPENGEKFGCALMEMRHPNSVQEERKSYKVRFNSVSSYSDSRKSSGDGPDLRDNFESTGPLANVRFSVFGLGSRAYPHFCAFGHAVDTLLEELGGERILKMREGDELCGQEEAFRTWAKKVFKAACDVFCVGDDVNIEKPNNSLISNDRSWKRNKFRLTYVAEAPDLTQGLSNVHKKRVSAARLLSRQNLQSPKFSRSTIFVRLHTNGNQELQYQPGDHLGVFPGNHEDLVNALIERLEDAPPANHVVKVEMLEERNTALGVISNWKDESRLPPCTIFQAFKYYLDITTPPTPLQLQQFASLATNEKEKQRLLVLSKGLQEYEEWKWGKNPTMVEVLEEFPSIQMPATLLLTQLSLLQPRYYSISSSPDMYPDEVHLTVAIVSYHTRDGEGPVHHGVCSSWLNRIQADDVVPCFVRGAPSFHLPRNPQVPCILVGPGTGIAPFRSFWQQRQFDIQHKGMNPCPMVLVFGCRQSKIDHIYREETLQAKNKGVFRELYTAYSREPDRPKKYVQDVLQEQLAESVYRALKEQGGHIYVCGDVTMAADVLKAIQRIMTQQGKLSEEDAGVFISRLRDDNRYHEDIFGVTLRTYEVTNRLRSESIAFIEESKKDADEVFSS
Chain of Kappa-type opioid receptor (P41145 whole entry): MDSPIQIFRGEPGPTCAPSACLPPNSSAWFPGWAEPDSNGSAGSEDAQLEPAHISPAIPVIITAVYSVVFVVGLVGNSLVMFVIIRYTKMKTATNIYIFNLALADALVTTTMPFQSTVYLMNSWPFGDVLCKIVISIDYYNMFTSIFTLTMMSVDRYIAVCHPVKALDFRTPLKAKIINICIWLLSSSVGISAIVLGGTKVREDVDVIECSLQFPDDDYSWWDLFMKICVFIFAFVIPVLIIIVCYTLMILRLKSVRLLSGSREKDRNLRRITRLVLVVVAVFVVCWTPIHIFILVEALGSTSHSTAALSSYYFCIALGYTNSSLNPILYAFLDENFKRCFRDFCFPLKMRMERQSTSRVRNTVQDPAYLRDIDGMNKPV

Nc1cc(N2CCCCC2)nc(N)[n+]1[O-] [MINOXIDIL]
Not Active: IC50 [1] | IC50 [2] | IC50 [3] | IC50 [4] | Ki [4] | IC50 [5] | IC50 [6] | Ki [6] | IC50 [7] | IC50 [8]

CO[C@H]1/C=C/O[C@@]2(C)Oc3c(C)c(O)c4c(O)c(c(/C=N/N5CCN(C6CCCC6)CC5)c(O)c4c3C2=O)NC(=O)/C(C)=C\C=C\[C@H](C)[C@H](O)[C@@H](C)[C@@H](O)[C@@H](C)[C@H](OC(C)=O)[C@@H]1C [RIFAPENTINE]
Not Active: IC50 [1] | IC50 [2] | IC50 [3] | IC50 [4] | Ki [4] | IC50 [5] | IC50 [6] | Ki [6] | IC50 [7] | IC50 [8]

CCCCOc1cc(CC2CNC(=O)N2)ccc1OC (stereo not given) [RO-201724]
Not Active: IC50 [1] | IC50 [2] | IC50 [3] | IC50 [4] | Ki [4] | IC50 [5] | IC50 [6] | Ki [6] | IC50 [7] | IC50 [8]

O=C(Oc1ccccc1C(=O)O)c1ccccc1O [SALSALATE]
Not Active: IC50 [1] | IC50 [2] | IC50 [3] | IC50 [4] | Ki [4] | IC50 [5] | IC50 [6] | Ki [6] | IC50 [7] | IC50 [8]

O=C(O)c1cn(-c2ccc(F)cc2)c2cc(N3CCNCC3)c(F)cc2c1=O [SARAFLOXACIN]
Not Active: IC50 [1] | IC50 [2] | IC50 [3] | IC50 [4] | Ki [4] | IC50 [5] | IC50 [6] | Ki [6] | IC50 [7] | IC50 [8]

CC(C)NCC(O)c1ccc(NS(C)(=O)=O)cc1 (stereo not given) [SOTALOL]
Not Active: IC50 [1] | IC50 [2] | IC50 [3] | IC50 [4] | Ki [4] | IC50 [5] | IC50 [6] | Ki [6] | IC50 [7] | IC50 [8]

O.O.O.O.O.O.[Cl-].[Cl-].[Sr+2] [STRONTIUM CHLORIDE HEXAHYDRATE]
Not Active: IC50 [1] | IC50 [2] | IC50 [3] | IC50 [4] | Ki [4] | IC50 [5] | IC50 [6] | Ki [6] | IC50 [7] | IC50 [8]

O=C1C(CC[S+]([O-])c2ccccc2)C(=O)N(c2ccccc2)N1c1ccccc1 (stereo not given) [SULFINPYRAZONE]
Not Active: IC50 [1] | IC50 [2] | IC50 [3] | IC50 [4] | Ki [4] | IC50 [5] | IC50 [6] | Ki [6] | IC50 [7] | IC50 [8]

COc1cc2nc(N3CCN(C(=O)C4CCCO4)CC3)nc(N)c2cc1OC (stereo not given) [TERAZOSIN]
Not Active: IC50 [1] | IC50 [2] | IC50 [3] | IC50 [4] | Ki [4] | IC50 [5] | IC50 [6] | Ki [6] | IC50 [7] | IC50 [8]

CN(C/C=C/C#CC(C)(C)C)Cc1cccc2ccccc12 [TERBINAFINE]
Not Active: IC50 [1] | IC50 [2] | IC50 [3] | IC50 [4] | Ki [4] | IC50 [5] | IC50 [6] | Ki [6] | IC50 [7] | IC50 [8]

Cn1c(=O)c2nc[nH]c2n(C)c1=O.O [THEOPHYLLINE]
Not Active: IC50 [1] | IC50 [2] | IC50 [3] | IC50 [4] | Ki [4] | IC50 [5] | IC50 [6] | Ki [6] | IC50 [7] | IC50 [8]

CS(=O)(=O)c1ccc([C@@H](O)[C@@H](CO)NC(=O)C(Cl)Cl)cc1 [THIAMPHENICOL]
Not Active: IC50 [1] | IC50 [2] | IC50 [3] | IC50 [4] | Ki [4] | IC50 [5] | IC50 [6] | Ki [6] | IC50 [7] | IC50 [8]

CCN(CC)CCNC(=O)c1cc(S(C)(=O)=O)ccc1OC [TIAPRIDE]
Not Active: IC50 [1] | IC50 [2] | IC50 [3] | IC50 [4] | Ki [4] | IC50 [5] | IC50 [6] | Ki [6] | IC50 [7] | IC50 [8]

Clc1ccccc1CN1CCc2sccc2C1 [TICLOPIDINE]
Not Active: IC50 [1] | IC50 [2] | IC50 [3] | IC50 [4] | Ki [4] | IC50 [5] | IC50 [6] | Ki [6] | IC50 [7] | IC50 [8]

NC1CCN(c2nc3c(cc2F)c(=O)c(C(=O)O)cn3-c2ccc(F)cc2F)C1 (stereo not given) [TOSUFLOXACIN]
Not Active: IC50 [1] | IC50 [2] | IC50 [3] | IC50 [4] | Ki [4] | IC50 [5] | IC50 [6] | Ki [6] | IC50 [7] | IC50 [8]

CC(c1cc2ccccc2s1)N(O)C(N)=O (stereo not given) [ZILEUTON]
Not Active: IC50 [1] | IC50 [2] | IC50 [3] | IC50 [4] | Ki [4] | IC50 [5] | IC50 [6] | Ki [6] | IC50 [7] | IC50 [8]
